The melting point is the temperature, or range, at which the solid turns liquid. With `O=C(O)C(F)(F)C(F)(F)C(F)(F)C(F)(F)C(F)(F)C(F)(F)C(F)(F)C(F)(F)C(F)(F)C(F)(F)C(F)(F)C(F)(F)C(F)(F)C(F)(F)C(F)(F)F`, the melting point is 154 to 155 °C.
To `NC(=NO)c1cccnc1` belongs 130 to 131 °C; to `Cc1cccc2ccoc12`, 109 °C.
As for `COc1cc(O)c(C(C)=O)c(O)c1`, the figure is 144 to 149 °C; as for `N#C/C(=N/Nc1cc(Cl)ccc1Cl)c1nc(-c2ccccc2)cs1`, 133 °C; as for `CCN(Cc1ccc(Cl)nc1)C(=C[N+](=O)[O-])NC`, 83.5 °C.
To `CC(C)S(=O)(=O)c1cnc(-c2cccnc2)nc1N` belongs 225 to 228 °C; to `NC(=S)c1ccc2c(c1)OCCO2`, 140 to 144 °C.
Turning to `OCC(F)(F)C(F)F`, the melting point was -15 °C.
As for `NCCc1c[nH]cn1`, the figure is 86 °C; as for `O=C(O)[C@@H](O)CCN1C(=O)c2ccccc2C1=O`, 157 to 159 °C; as for `CCOC(=O)[C@H](Cc1ccc(O)cc1)NC(=O)c1ccccc1`, 118 to 121 °C.
Compound `O=C(C=CC=Cc1ccccc1)C=CC=Cc1ccccc1` yielded a melting point of 139 to 144 °C.
Compound `CCOC(=O)C1=NC2Sc3sc(C(=O)OCC)cc3C(c3ccccc3)C2=C1N` (centres undefined) registered a melting point of 133 °C.
Consider `Cc1nc(I)c(I)[nH]1`, for which the melting point lay within 194 to 195 °C.
To `Cc1ccc(C=CC(=O)c2cccc([N+](=O)[O-])c2)cc1` belongs 143 to 146 °C; to `N#CC(=Cc1ccccc1)C(N)=O`, 155 °C; to `O=C(Oc1ccccc1)c1cccnc1`, 72 °C.
In turn, `c1ccc2c(c1)cc1ccc3cc4ccccc4c4ccc2c1c34` yielded a melting point of 282 °C.
To `CSc1n[nH]c(N)c1C(N)=O` belongs 176 °C; to `CC(=O)OCC(=O)C1(O)CCC2(O)C3CCC4=CC(=O)CCC4(C)C3CCC12C` (centres undefined), 236 °C; to `Cc1ccc(S(=O)(=O)n2ccc(C(=O)O)c2)cc1`, 202 to 206 °C.
To `COC(=O)c1ccc(C)nc1` belongs 34 to 37 °C; to `CC(C)(C)NCCO`, 44 °C; to `CC(C)CI`, -93 °C.
To `O=c1n(CCCN2CCN(c3cccc(Cl)c3)CC2)nc2ccccn12` belongs 87 °C.
In turn, `NC(CCS)C(=O)O` (centres undefined) had a melting point of 232 °C.
As for `CC(Br)C(=O)c1ccc(Br)cc1` (centres undefined), the figure is 85 to 88 °C.
`CC(=O)OC1CC2(C)C(CC(O)C3C4(C)CCC(O)C(C)C4CCC32C)C1=C(CCC=C(C)C)C(=O)O` (centres undefined) yielded a melting point of 192 °C.
To `O=C1C2ON(c3ccccc3)C(c3ccccc3)C2C(=O)N1c1ccccc1` (centres undefined) belongs 151 to 152 °C; to `CC(=O)OCc1cn(C(C)=O)c2ccccc12`, 85 to 86 °C; to `Cc1nn(C(=O)OC(C)(C)C)c(C)c1C=O`, 59 to 62 °C.
Consider `COc1c2c(cc3oc(=O)ccc13)OC(C)(C)C=C2`, for which the melting point is 133 °C.
In turn, `Cc1c(C)c([N+](=O)[O-])c(C)c2c1C(=O)C2` had a melting point of 164 °C.
As for `c1cc2c(c(NC3=NCCN3)c1)CCCC2`, the figure is 142 °C; as for `CCc1ccc(N2C(=O)C=CC2=O)cc1`, 66 °C; as for `CCCCCCCCCCCCCCCCC(=O)OC`, 30 °C.
To `CC1(c2ccccc2)NC(=O)NC1=O` (centres undefined) belongs 199 to 201 °C; to `O=C1NCCN1`, 131 °C.
To `O=C(Oc1ccccc1C(=O)O)c1ccccc1O` belongs 147 °C; to `Brc1cc(Br)c(Oc2cc(Br)c(Br)cc2Br)cc1Br`, 160 to 163 °C.
In turn, `Cc1c(C(C)C2NCC(C)CC2O)ccc2c1CC1C2CC=C2CC(O)CCC21C` (centres undefined) had a melting point of 206 °C.
As for `CCCCCCCC(=O)OC(=O)CCCCCCC`, the figure is -1 °C.
To `O=C(O)c1cccc(Cn2cncn2)c1` belongs 209 to 210 °C.
Regarding `C=C(C)C(=O)OCC(C)C`, the melting point is -37 °C.
As for `O=C1C=C(NCc2ccc(Cl)cc2)C(=O)c2ccccc21`, the figure is 230 °C; as for `Cc1cc2nc3c(=O)[nH]c(=O)nc-3n(CC(O)C(O)C(O)CO)c2cc1C` (centres undefined), 290 °C; as for `CC1(O)Cc2ccccc21` (centres undefined), 78 °C.
To `C=C1C(=O)C23C(OC(C)=O)CC4C5(C)CCCC4(C(=O)OC5)C2C(OC(C)=O)CC1C3OC(C)=O` (centres undefined) belongs 235 °C; to `O=C(O)C1(C(=O)O)C2CCCCCCC21` (centres undefined), 217 °C.
As for `CC(C)COC(=O)CCCCC(=O)OCC(C)C`, the figure is -20 °C; as for `O=c1c(Cl)c(Cl)cnn1Cc1c(F)cccc1Cl`, 137 to 138 °C; as for `O=C(C(Cl)Cl)N(CCO)Cc1ccc(Oc2ccc([N+](=O)[O-])cc2)cc1`, 136 °C.
As to `Oc1ccc2cc[nH]c2c1`, the melting point was 124 to 130 °C.
`CCC(C)CCCCO` (centres undefined): the melting point was -104 °C.
To `CC(NC(=O)CCCCNC(=O)C12CC3CC(CC(C3)C1)C2)C(=O)NC(CCC(=O)O)C(N)=O` (centres undefined) belongs 200 °C; to `CC(C)(C#N)N=NC(C)(C)C#N`, 102 °C; to `Cc1ccc(S(=O)(=O)OCCCCCCOS(=O)(=O)c2ccc(C)cc2)cc1`, 70.5 to 73 °C.
On to `C#CC(C)(C)NC(=O)c1cc(Cl)cc(Cl)c1`, for which the melting point came out at 156 °C.
To `N[C@@H](Cc1cc(Br)c(O)c(Br)c1)C(=O)O` belongs 245 °C; to `CC(=O)c1ccc(C=O)s1`, 105 to 106 °C; to `CCC(C)c1ccccc1O` (centres undefined), 16 °C.
As for `CO[C@@H](C)[C@H](N)C(=O)O`, the figure is 220 to 224 °C.
On to `O=C(O)CCN1C(=O)c2ccccc2C1=O`, for which the melting point is 152 °C.
To `COC(=O)c1ccc(Oc2cccnc2)o1` belongs 78 to 79 °C; to `CN(C)CCOc1ccc(N)cc1`, 55 to 57 °C.
To `CNN` belongs -21 °C.
`CCOC(=O)c1ccc(C#N)cc1`: the melting point turned out to be 54 °C.
To `CCOC(=O)c1cc(C(C)=O)ccc1OCC` belongs 53 °C.
As for `COc1ccccc1C1CCN(c2ccc(C=O)cc2[N+](=O)[O-])CC1`, the figure is 116 to 118 °C; as for `Oc1c2ccccc2cc2ccccc12`, 152 °C.
As for `Cc1ccc(OC(C)(C)C(=O)O)c2c1CCC2`, the figure is 89 to 90 °C; as for `CCCCNC(=O)OCC(C)(CCC)COC(N)=O` (centres undefined), 50 °C.
Turning to `CCCC(C)(C)C(C)(C)C`, the melting point is -54 °C.
As for `COc1cc(C)cc(OC)c1O`, the figure is 39 °C; as for `O=C(Nc1ccccc1)c1ccccc1I`, 137 °C; as for `CCN1CCc2c3n(c4ccccc24)C(C(=O)OC)=CCC31` (centres undefined), 120 °C.
Consider `CC(=O)O[Si](OC(C)=O)(OC(C)(C)C)OC(C)(C)C`, for which the melting point was -4 °C.
`COc1ccc(N2C(=O)C3ON=C(C(=O)c4ccccc4)C3C2=O)cc1` (centres undefined) came in with a melting point of 166 °C.

The values are drawn from a melting point compilation (Tetko et al.).
